The values below come from ChEMBL document CHEMBL5346920, “Development of the "hidden" multi-target-directed ligands by AChE/BuChE for the treatment of Alzheimer's disease” (Eur J Med Chem, 2023).

Calls of active or inactive are those of the source. The rule behind the calls is not given here.

Data set [1] in a line: Metal chelating activity assessed as compound-Fe2+ complex formation at 37.5 uM incubated for 30 mins in presence of FeSO4 by UV-Vis spectrometry.
For data set [2], the species on record is Danio rerio. Briefly: Neuroprotective activity against AlCl3-induced Alzheimer's disease zebra fish model assessed as distance velocity at 0.0195 ug/ml treated for 24 hrs and measured after 24 hrs under dark environment (reference value: 10.4 cm/min). Conditions: dose 0.0195 µg/ml; time 48 hrs. It counts as functional.
The target in data set [3] is T1, Cholinesterase (Equus caballus, UniProt P81908). As to the kind of experiment: Drug metabolism assessed as equine serum BuChE-mediated 3-(4-fluorophenyl)-1-(2-hydroxyphenyl)prop-2-en-1-one formation treated at 150 mmol/L with 0.001U BuChE and measured after 9 mins by HPLC analysis. It counts as ADME, cell-free. Conditions: horse, 0.15 h.
For data set [4], the species on record is Danio rerio. As to the kind of experiment: Antialzheimer activity against AlCl3-induced Alzheimer's disease zebra fish model assessed as distance velocity at 0.0049 ug/ml treated for 24 hrs and measured after 24 hrs under light environment (reference value: 7.7 cm/min). It is filed as functional. Conditions: dose 0.0049 µg/ml; time 48 hrs.
The next data set has as its system PC-12. As to the kind of experiment: Cytotoxicity against rat PC-12 cells assessed as cell viability at 40 uM by CCK-8 assay. It counts as toxicity, cell-based. Conditions: pc-12, 40 µM.
Data set [5] is filed under the species Danio rerio. Briefly: Neuroprotective activity against AlCl3-induced Alzheimer's disease zebra fish model assessed as distance velocity at 0.0195 ug/ml treated for 24 hrs and measured after 24 hrs under light environment (reference value: 7.7 cm/min). Conditions: dose 0.0195 µg/ml; time 48 hrs. It counts as functional.
The species named for data set [6] is Danio rerio. Briefly: Antialzheimer activity against AlCl3-induced Alzheimer's disease zebra fish model assessed as total distance moved at 0.0049 ug/ml treated for 24 hrs and measured after 24 hrs under alternating light dark stimuli conditions (reference value: 543 cm). It counts as functional. The note with it: dose 0.0049 µg/ml; time 48 hrs.
Data set [7] in a line: Stability of the compound in blank intestinal juice assessed as parent compound remaining at 1 mg/ml measured after 8 hrs by UPLC-MS/MS analysis. The note with it: read-out: Stability. It counts as ADME.
Data set [8] is filed under the species Danio rerio. Briefly: Antialzheimer activity against AlCl3-induced Alzheimer's disease zebra fish model assessed as total distance moved at 0.0195 ug/ml treated for 24 hrs and measured after 24 hrs under alternating light dark stimuli conditions (reference value: 543 cm). The note with it: dose 0.0195 µg/ml; time 48 hrs. It is filed as functional.
A short description of data set [9]: Metal chelating activity assessed as compound-Cu2+ complex formation by measuring maximum absorption wavelength shift from 316 to 446 nm at 37.5 uM incubated for 30 mins in presence of CuCl2 by UV-Vis spectrometry.
Data set [10] has as its target Acetylcholinesterase (Electrophorus electricus) (UniProt O42275). Briefly: Reversible inhibition of electric eel AChE assessed as enzyme activity using acetylthiocholine iodide as substrate measured after dilution to 0.1XIC50 for 120 mins by Ellman's method. Further details: scale not given: the % may be the effect or the level left.
A short description of data set [11]: Acute toxicity in zebra fish assessed as ratio of pericardial edema to body weight at 0.15625 to 2.5 ug/ml and measured at 120 hpf by microscopic analysis. On the set-up: species or system Danio rerio. Conditions: zebrafish; dose 0.15625-2.5 µg/ml.
For data set [12], the species on record is Danio rerio. As to the kind of experiment: Neuroprotective activity against AlCl3-induced Alzheimer's disease zebra fish model assessed as distance velocity at 0.078 ug/ml treated for 24 hrs and measured after 24 hrs under dark environment (reference value: 10.4 cm/min). It is filed as functional. Conditions: dose 0.078 µg/ml; time 48 hrs.
Data set [13] deals with T2, Acetylcholinesterase (Electrophorus electricus, UniProt O42275). As to the kind of experiment: Inhibition of electric eel AChE using acetylthiocholine chloride as substrate by Ellman's method.
The target of data set [14] is T1, Cholinesterase. Briefly: Drug metabolism assessed as equine serum BuChE-mediated 3-(4-fluorophenyl)-1-(2-hydroxyphenyl)prop-2-en-1-one formation treated at 150 mmol/L with 0.25U BuChE and measured after 6 mins by HPLC analysis. It counts as ADME, cell-free. Conditions: horse, 0.1 h.
A short description of data set [15]: Permeability of the compound at 100 ug/ml incubated for 18 hrs by PAMPA assay. It is filed as ADME. The note with it: dose 100 µg/ml, read-out: permeability.
Data set [16] deals with T2, Acetylcholinesterase. As to the kind of experiment: Drug metabolism assessed as electric eel AChE-mediated 3-(4-fluorophenyl)-1-(2-hydroxyphenyl)prop-2-en-1-one formation treated at 150 mmol/L with 0.25U AChE and measured after 9 mins by HPLC analysis. It counts as ADME. Conditions: 0.15 h.

T2 sequence (O42275 whole entry): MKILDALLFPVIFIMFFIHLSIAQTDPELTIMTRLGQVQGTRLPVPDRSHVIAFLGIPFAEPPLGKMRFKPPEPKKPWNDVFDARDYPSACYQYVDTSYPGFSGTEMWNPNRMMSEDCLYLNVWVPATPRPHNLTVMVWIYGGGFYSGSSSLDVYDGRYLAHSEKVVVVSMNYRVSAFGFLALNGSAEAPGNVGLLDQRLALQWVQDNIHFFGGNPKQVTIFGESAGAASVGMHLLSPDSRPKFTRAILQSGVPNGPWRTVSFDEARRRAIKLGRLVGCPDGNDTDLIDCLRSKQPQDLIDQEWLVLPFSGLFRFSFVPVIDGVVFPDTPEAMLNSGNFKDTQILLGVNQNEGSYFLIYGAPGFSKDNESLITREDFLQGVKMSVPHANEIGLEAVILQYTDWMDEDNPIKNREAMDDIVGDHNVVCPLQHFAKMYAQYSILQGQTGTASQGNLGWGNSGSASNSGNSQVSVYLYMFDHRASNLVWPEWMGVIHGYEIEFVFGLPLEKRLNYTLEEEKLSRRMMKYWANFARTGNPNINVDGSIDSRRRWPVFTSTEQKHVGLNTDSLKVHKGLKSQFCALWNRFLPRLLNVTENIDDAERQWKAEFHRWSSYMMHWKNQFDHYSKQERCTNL
T1 sequence (P81908 whole entry): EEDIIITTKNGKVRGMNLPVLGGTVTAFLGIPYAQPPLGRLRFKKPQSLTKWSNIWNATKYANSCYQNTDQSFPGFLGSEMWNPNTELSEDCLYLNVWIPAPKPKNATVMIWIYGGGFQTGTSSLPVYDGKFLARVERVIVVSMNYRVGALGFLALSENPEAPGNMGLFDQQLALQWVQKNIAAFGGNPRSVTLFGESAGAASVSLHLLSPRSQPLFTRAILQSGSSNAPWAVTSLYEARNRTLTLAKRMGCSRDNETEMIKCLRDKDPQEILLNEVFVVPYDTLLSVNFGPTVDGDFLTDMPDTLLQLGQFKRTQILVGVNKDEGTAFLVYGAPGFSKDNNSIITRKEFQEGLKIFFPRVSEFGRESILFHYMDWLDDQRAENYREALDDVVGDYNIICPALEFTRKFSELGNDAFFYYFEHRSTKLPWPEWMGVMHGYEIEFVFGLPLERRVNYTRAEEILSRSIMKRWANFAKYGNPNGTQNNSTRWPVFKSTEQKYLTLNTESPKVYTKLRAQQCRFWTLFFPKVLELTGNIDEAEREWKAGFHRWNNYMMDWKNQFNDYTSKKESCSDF
Chain of Acetylcholinesterase (Electrophorus electricus) (O42275 24-633 limits assumed): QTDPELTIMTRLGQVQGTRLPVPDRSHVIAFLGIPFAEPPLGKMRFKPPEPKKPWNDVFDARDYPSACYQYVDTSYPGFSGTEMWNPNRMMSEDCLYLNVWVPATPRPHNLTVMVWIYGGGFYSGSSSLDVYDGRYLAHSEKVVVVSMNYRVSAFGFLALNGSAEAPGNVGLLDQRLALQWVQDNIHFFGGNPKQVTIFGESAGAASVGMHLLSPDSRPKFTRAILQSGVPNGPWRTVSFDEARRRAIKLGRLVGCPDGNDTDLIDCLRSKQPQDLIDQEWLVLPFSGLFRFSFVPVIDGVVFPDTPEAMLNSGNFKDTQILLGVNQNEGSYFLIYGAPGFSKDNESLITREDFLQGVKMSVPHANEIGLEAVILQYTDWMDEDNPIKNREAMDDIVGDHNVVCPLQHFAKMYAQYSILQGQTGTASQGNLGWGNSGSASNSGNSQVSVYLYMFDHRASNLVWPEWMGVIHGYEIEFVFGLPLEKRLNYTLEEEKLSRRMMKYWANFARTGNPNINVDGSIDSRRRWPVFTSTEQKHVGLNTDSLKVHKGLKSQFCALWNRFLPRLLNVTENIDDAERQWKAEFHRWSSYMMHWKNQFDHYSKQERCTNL

Take `CCN(C)C(=O)Oc1ccccc1C(=O)/C=C/c1ccc(F)cc1`: the result in [1] and in data set [9] was inactive. The Activity is recorded as 19.2 cm/min in the data set listed under Danio rerio [2]; 12.4 cm/min in the data set filed under Danio rerio [4]; “Non-Toxic” with PC-12; 11.5 cm/min in the data set listed under Danio rerio [5]; 764 cm in the data set filed under Danio rerio [6]; 922 cm in the data set filed under Danio rerio [8]. Also, the Activity in data set [10] was 88.7%; in [11], “Non-Toxic”; in the data set listed under Danio rerio [12], 17.9 cm/min. The figures for the Drug metabolism at Cholinesterase [3], on Cholinesterase [14] and on Acetylcholinesterase [16] were 2.52 mmol/L, 14.62 mmol/L and 22.57 mmol/L, respectively. In data set [7], the remaining at 8 h, 1 mg/ml came to 98.5%. Also, the IC50 at Acetylcholinesterase [13] was determined as 5.3 µM. In data set [15], the Papp at 18 h, 100 ug/ml was found to be 16.8 ×10⁻⁶ cm/s.
